For this assay, the system named is BDF1 mice, P388 leukemia ip, median survival T/C. In words: NCI In Vivo Anticancer Drug Screen. Data for tumor model P388 Leukemia (intraperitoneal) in B6D2F1 (BDF1) mice. The note with it: endpoint: median survival time, higher = longer survival. The essentials: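 Each value expresses how treatment altered survival: treated-mouse outcome over vehicle-mouse outcome, both groups bearing the transplanted tumour.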

Setting [1] is: dose: 50.0 mg/kg/injection, schedule: Q01DX009 (ip), vehicle: saline with Tween-80.
The mark [2] stands for this setting: dose: 100.0 mg/kg/injection, schedule: Q01DX009 (ip), vehicle: saline with Tween-80.
The mark [3] stands for this setting: dose: 200.0 mg/kg/injection, schedule: Q01DX009 (ip), vehicle: saline with Tween-80.

“And” between values parts separate entries of the source, which are not always exact repeats. Equal entries are not always repeated. Toxic doses and inconclusive results are not listed.

Here are results for 14 compounds from PubChem BioAssay AID328 (DTP/NCI, 2004).

On to `COc1cc(C=Nc2ccc(-c3nc(C)sc3C)cc2)ccc1N(CCCl)CCCl`, for which the T/C was 300 % of control (dose: 16.5 mg/kg/injection, schedule: Q04DX003 (ip), vehicle: Klucel (hydroxypropylcellulose) (HPC)); 231 % of control and 300 % of control (dose: 25.0 mg/kg/injection, schedule: Q04DX003 (ip), vehicle: Klucel (hydroxypropylcellulose) (HPC)); 300 % of control (dose: 37.5 mg/kg/injection, schedule: Q04DX003 (ip), vehicle: Klucel (hydroxypropylcellulose) (HPC)).
Take `CCOC1OCN(c2cccc(Cl)c2)CC1(C)C` (stereo not given): the T/C under setting [1] was 98 % of control, the T/C under setting [2] is 112 % of control and the T/C under setting [3] was 114 % of control.
Consider `CS/C(N)=N/N`, for which the T/C by setting is: (dose: 6.25 mg/kg/injection, schedule: Q04DX003 (ip), vehicle: saline) 95 % of control; (dose: 12.5 mg/kg/injection, schedule: Q04DX003 (ip), vehicle: saline) 108 % of control.
Take `CCCC(O)Cc1c[nH]c(=O)[nH]c1=O` (stereo not given): the T/C was 101 % of control (dose: 6.25 mg/kg/injection, schedule: Q01DX009 (ip), vehicle: saline with Tween-80); 92 % of control (dose: 12.5 mg/kg/injection, schedule: Q01DX009 (ip), vehicle: saline with Tween-80); 101 % of control (dose: 12.5 mg/kg/injection, schedule: Q04DX003 (ip), vehicle: saline with Tween-80); 106 % of control (dose: 25.0 mg/kg/injection, schedule: Q01DX009 (ip), vehicle: saline with Tween-80); 104 % of control (dose: 25.0 mg/kg/injection, schedule: Q04DX003 (ip), vehicle: saline with Tween-80); 93 % of control under setting [1]. Further, the T/C (dose: 50.0 mg/kg/injection, schedule: Q04DX003 (ip), vehicle: saline with Tween-80) was 100 % of control.
Regarding `COc1cc(OC)c(C(=O)CCc2ccccc2)c(O)c1Cc1ccccc1O`, the T/C by setting is: (dose: 0.5 mg/kg/injection, schedule: Q01DX009 (ip), vehicle: saline) 106 % of control; (dose: 2.0 mg/kg/injection, schedule: Q01DX009 (ip), vehicle: saline) 113 % of control; (dose: 4.0 mg/kg/injection, schedule: Q01DX009 (ip), vehicle: saline with Tween-80) 120 % of control; (dose: 4.0 mg/kg/injection, schedule: Q01DX009 (ip), vehicle: saline) 103 % of control; (dose: 5.9 mg/kg/injection, schedule: Q01DX009 (ip), vehicle: saline with Tween-80) 103 % of control; (dose: 13.0 mg/kg/injection, schedule: Q01DX009 (ip), vehicle: saline with Tween-80) 103 % of control.
`CC1CC=C(C2CC(C)CC(N(C)C)C2=N)CC1` (stereo not given): the T/C (dose: 12.5 mg/kg/injection, schedule: Q01DX009 (sc), vehicle: olive oil, sesame oil, peanut oil) is 104 % of control; the T/C (dose: 25.0 mg/kg/injection, schedule: Q01DX009 (sc), vehicle: olive oil, sesame oil, peanut oil) is 109 % of control; the T/C (dose: 50.0 mg/kg/injection, schedule: Q01DX009 (sc), vehicle: olive oil, sesame oil, peanut oil) is 113 % of control; the T/C (dose: 100.0 mg/kg/injection, schedule: Q04DX003 (sc), vehicle: olive oil, sesame oil, peanut oil) is 91 % of control; the T/C (dose: 200.0 mg/kg/injection, schedule: Q04DX003 (sc), vehicle: olive oil, sesame oil, peanut oil) was 104 % of control; the T/C (dose: 400.0 mg/kg/injection, schedule: Q04DX003 (sc), vehicle: olive oil, sesame oil, peanut oil) was 116 % of control.
As for `CNC(C)(C)CO`, the T/C is 105 % of control (dose: 100.0 mg/kg/injection, schedule: Q01DX009 (ip), vehicle: saline); 104 % of control (dose: 100.0 mg/kg/injection, schedule: Q04DX003 (ip), vehicle: saline); 115 % of control (dose: 200.0 mg/kg/injection, schedule: Q01DX009 (ip), vehicle: saline); 95 % of control (dose: 200.0 mg/kg/injection, schedule: Q04DX003 (ip), vehicle: saline); 95 % of control (dose: 400.0 mg/kg/injection, schedule: Q04DX003 (ip), vehicle: saline).
On to `Cc1nc2ccccc2nc1CC(O)(c1ccccc1)c1ccccc1`, for which the T/C is, setting by setting: under setting [1], 97 % of control; under setting [2], 103 % of control; under setting [3], 100 % of control.
As to `Cn1c(=O)c2c(nc(CCCCc3nc4c(c(=O)n(C)c(=O)n4C)n3C)n2C)n(C)c1=O`, the T/C reads like this: under setting [2], 91 % of control; under setting [3], 88 % of control.
Turning to `C[C@]12CCC(=O)C=C1CC[C@@H]1[C@@H]2[C@@H](O)C[C@@]2(C)[C@H]1CC[C@]2(O)C(=O)COC(=O)CCC(=O)O`, the T/C runs as follows: (dose: 50.0 mg/kg/injection, schedule: Q01DX009 (sc), vehicle: steriod suspending solution) 111 % of control; (dose: 100.0 mg/kg/injection, schedule: Q01DX009 (sc), vehicle: steriod suspending solution) 111 % of control; (dose: 100.0 mg/kg/injection, schedule: Q04DX003 (sc), vehicle: steriod suspending solution) 100 % of control; (dose: 200.0 mg/kg/injection, schedule: Q01DX009 (sc), vehicle: steriod suspending solution) 116 % of control; (dose: 200.0 mg/kg/injection, schedule: Q04DX003 (sc), vehicle: steriod suspending solution) 104 % of control; (dose: 400.0 mg/kg/injection, schedule: Q01DX009 (sc), vehicle: steriod suspending solution) 111 % of control. Besides, the T/C (dose: 400.0 mg/kg/injection, schedule: Q04DX003 (sc), vehicle: steriod suspending solution) is 100 % of control.
With `Cc1n(C(C)C)c2c([n+]1C)C(=O)c1ccccc1C2=O`, the T/C reads like this: (dose: 1.25 mg/kg/injection, schedule: Q01DX009 (ip), vehicle: alcohol) 118 % of control; (dose: 2.5 mg/kg/injection, schedule: Q01DX009 (ip), vehicle: alcohol) 122 % of control.
On to `C/C(=C\c1ccc(OCc2ccccc2)cc1)C(=O)c1ccc(Cl)cc1`, for which the T/C under setting [1] is 90 % of control, the T/C under setting [2] is 87 % of control and the T/C under setting [3] was 92 % of control.
Take `CC(C)CC(NC(=O)C(C)N)C(=O)NCC(=O)O` (stereo not given): the T/C (dose: 50.0 mg/kg/injection, schedule: Q01DX005 (ip), vehicle: saline) was 100 % of control; the T/C (dose: 100.0 mg/kg/injection, schedule: Q01DX005 (ip), vehicle: saline) is 91 % of control; the T/C (dose: 200.0 mg/kg/injection, schedule: Q01DX005 (ip), vehicle: saline) was 103 % of control.
As to `c1ccc([C@H]2CN3CCSC3=N2)cc1`, the T/C is 100 % of control (dose: 0.15 mg/kg/injection, schedule: Q01DX009 (ip), vehicle: saline); 100 % of control (dose: 0.31 mg/kg/injection, schedule: Q01DX009 (ip), vehicle: saline); 100 % of control and 122 % of control (dose: 0.63 mg/kg/injection, schedule: Q01DX009 (ip), vehicle: saline); 97 % of control and 104 % of control (dose: 1.25 mg/kg/injection, schedule: Q01DX009 (ip), vehicle: saline); 99 % of control and 104 % of control (dose: 2.5 mg/kg/injection, schedule: Q01DX009 (ip), vehicle: saline); 100 % of control (dose: 5.0 mg/kg/injection, schedule: Q01DX009 (ip), vehicle: saline). For the same compound, the T/C was 94 % of control and 100 % of control (dose: 10.0 mg/kg/injection, schedule: Q01DX009 (ip), vehicle: saline); 94 % of control and 100 % of control (dose: 20.0 mg/kg/injection, schedule: Q01DX009 (ip), vehicle: saline).
